Reference: US8912184B1, “Therapeutic and diagnostic methods” (Alzheimer's Institute of America, Inc., priority 2010, dated 2014)
Like-named read-outs stand apart in the source and are kept apart here.

Legend:
[1] = test system: cancer cell lines; test: Standard Cytotoxicity Assay for other cancer cell types (TC50, CellTiter-Glo); assay type: cell-based
Protocol: (§1) Approximately 24 hours later, test compound was added from serial dilutions prepared in DMSO from DMSO stock solutions.

[2] = as above; assay type: cell-based; conditions: for CC50 at 3 day: read-out: Cmpd A 3 day TC50; for CC50 at 7 day: read-out: Cmpd A 7 day TC50
Protocol: as §1

[3] = human, MALME-3 cells (normal skin), MALME-3 cells (skin (normal))
[4] = human, hFLS-RA (primary synoviocytes)
[5] = keratinocytes (primary skin cells), keratinocytes (primary skin)

SMILES: O=C(NCc1cccnc1)Nc1ccc(COc2ccccc2-c2ccccc2)cc1 [Exemplary Compound A, 1-{4-[(biphenyl-2-yloxy)methyl]phenyl}-3-(pyridin-3-ylmethyl)urea]
- CC50 ([1]; Homo sapiens, NB-4, 72 h, NB-4 cells (myelogenous leukemia), 3 day, read-out: Cmpd A 3 day TC50): < 0.8 nM
- CC50 ([1]; Homo sapiens, NCI-H69, 72 h, NCI-H69 (SCLC), 3 DAY, read-out: TC50 (the source's name)): 1 nM
- CC50 ([1]; Homo sapiens, NCI-H69, 72 h, NCI-H69 cells (lung (small cell)), 3 day, read-out: Cmpd A 3 day TC50): 1 nM
- CC50 ([1]; Homo sapiens, NCI-H82, 72 h, NCI-H82 (SCLC), 3 DAY, read-out: TC50 (the source's name)): 1.1 nM
- CC50 ([1]; Homo sapiens, NCI-H226, 72 h, NCI-H226 cells (lung (NSCLC)), 3 day, read-out: Cmpd A 3 day TC50): 62 nM
- CC50 ([1]; Homo sapiens, NCI-H460, 72 h, NCI-H460 (NSCLC), 3 DAY, read-out: TC50 (the source's name)): 15.4 nM
- CC50 ([1]; Homo sapiens, NCI-H460, 72 h, NCI-H460 cells (lung (NSCLC)), 3 day, n = 9, read-out: Cmpd A 3 day TC50): 26 nM
- CC50 ([1]; Homo sapiens, NCI-H460, 168 h, NCI-H460 cells (lung (NSCLC)), 7 day, n = 8, read-out: Cmpd A 7 day TC50): 17 nM
- CC50 ([1]; Homo sapiens, NCI-H522, 72 h, NCI-H522 (NSCLC), 3 DAY, read-out: TC50 (the source's name)): 1 nM
- CC50 ([1]; Homo sapiens, NCI-H522, 168 h, NCI-H522 (NSCLC), 7 DAY, read-out: TC50 (the source's name)): 0.4 nM
- CC50 ([1]; Homo sapiens, NCI-H522, 168 h, NCI-H522 cells (lung (NSCLC)), 7 day, read-out: Cmpd A 7 day TC50): 0.4 nM
- CC50 ([1]; Homo sapiens, NCI-H929, 72 h, NCI-H929 (myeloma), 3 DAY, read-out: TC50 (the source's name)): 2.5 nM
- CC50 ([1]; Homo sapiens, NCI-H1299, 72 h, NCI-H1299 cells (lung (NSCLC)), 3 day, read-out: Cmpd A 3 day TC50): 4 nM
- CC50 ([1]; Homo sapiens, NCI-H1650, 72 h, NCI-H1650 (NSCLC), 3 DAY, read-out: TC50 (the source's name)): 2.5 nM
- CC50 ([1]; Homo sapiens, NCI-H1650, 72 h, NCI-H1650 cells (lung (NSCLC)), 3 day, read-out: Cmpd A 3 day TC50): 1.5 nM
- CC50 ([1]; Homo sapiens, NCI-N87, 72 h, NCI-N87 (gastric), 3 DAY, read-out: TC50 (the source's name)): 0.3 nM
- CC50 ([1]; Homo sapiens, NCI-N87, 72 h, NCI-N87 cells (gastric), 3 day, read-out: Cmpd A 3 day TC50): 0.3 nM
- CC50 ([1]; Homo sapiens, NCI-N87, 168 h, NCI-N87 (gastric), 7 DAY, read-out: TC50 (the source's name)): 0.2 nM
- CC50 ([1]; Homo sapiens, NCI-N87, 168 h, NCI-N87 cells (gastric), 7 day, read-out: Cmpd A 7 day TC50): 0.2 nM
- CC50 ([1]; Homo sapiens, NOMO-1, 72 h, NOMO-1 cells (myelogenous leukemia), 3 day, read-out: Cmpd A 3 day TC50): < 0.8 nM
- CC50 ([1]; Homo sapiens, OCI-LY19, 72 h, OCI-LY-19 cells (lymphoma), 3 day, read-out: Cmpd A 3 day TC50): 1.1 nM
- CC50 ([1]; Homo sapiens, OCI-LY19, 72 h, OCI-Ly19 (lymphoma), 3 DAY, read-out: TC50 (the source's name)): 1.2 nM
- CC50 ([1]; Homo sapiens, OPM-2, 72 h, OPM-2 (myeloma), 3 DAY, read-out: TC50 (the source's name)): 1.5 nM
- CC50 ([1]; Homo sapiens, OVCAR-3, 72 h, OVCAR3 (ovarian), 3 DAY, read-out: TC50 (the source's name)): 1.1 nM
- CC50 ([1]; Homo sapiens, OVCAR-3, 72 h, OVCAR-3 cells (ovary), 3 day, read-out: Cmpd A 3 day TC50): 1.1 nM
- CC50 ([1]; Homo sapiens, OVCAR-3, 168 h, OVCAR3 (ovarian), 7 DAY, read-out: TC50 (the source's name)): 0.4 nM
- CC50 ([1]; Homo sapiens, OVCAR-3, 168 h, OVCAR-3 cells (ovary), 7 day, read-out: Cmpd A 7 day TC50): 0.4 nM
- CC50 ([1]; Homo sapiens, OVCAR-4, 72 h, OVCAR-4 cells (ovary), 3 day, read-out: Cmpd A 3 day TC50): 2.8 nM
- CC50 ([1]; Homo sapiens, OVCAR-5, 72 h, OVCAR-5 cells (ovary), 3 day, read-out: Cmpd A 3 day TC50): 1.5 nM
- CC50 ([1]; Homo sapiens, OVCAR-8, 72 h, OVCAR-8 cells (ovary), 3 day, read-out: Cmpd A 3 day TC50): 0.5 nM
- CC50 ([1]; Homo sapiens, PC-3, 72 h, PC-3 cells (prostate), 3 day, read-out: Cmpd A 3 day TC50): < 1.5 nM
- CC50 ([1]; Homo sapiens, PFSK-1, 72 h, PFSK-1 cells (brain; malignant neuroectodermal tumor), 3 day, read-out: Cmpd A 3 day TC50): < 0.8 nM
- CC50 ([1]; Homo sapiens, RPMI-8226, 72 h, RPMI-8226 cells (myeloma), 3 day, read-out: Cmpd A 3 day TC50): 6 nM
- CC50 ([1]; Homo sapiens, Ramos, 72 h, Ramos cells (lymphoma), 3 day, read-out: Cmpd A 3 day TC50): 1.8 nM
- CC50 ([1]; Homo sapiens, SF-295, 72 h, SF-295 (glioma), 3 DAY, read-out: TC50 (the source's name)): 1.5 nM
- CC50 ([1]; Homo sapiens, SK-BR-3, 72 h, SK-BR-3 cells (breast), 3 day, read-out: Cmpd A 3 day TC50): 6.8 nM
- CC50 ([1]; Homo sapiens, SK-OV-3, 72 h, SK-OV-3 cells (ovary), 3 day, read-out: Cmpd A 3 day TC50): 1.2 nM
- CC50 ([1]; Homo sapiens, SKM-1, 72 h, SKM-1 cells (myelogenous leukemia), 3 day, read-out: Cmpd A 3 day TC50): < 0.8 nM
- CC50 ([1]; Homo sapiens, SR, 72 h, SR cells (lymphoma), 3 day, read-out: Cmpd A 3 day TC50): 21 nM
- CC50 ([1]; Homo sapiens, SU-DHL10, 72 h, SU-DHL-10 cells (lymphoma), 3 day, read-out: Cmpd A 3 day TC50): 0.75 nM
- CC50 ([1]; Homo sapiens, SU-DHL-1, 72 h, SU-DHL-1 cells (lymphoma), 3 day, read-out: Cmpd A 3 day TC50): 37 nM
- CC50 ([1]; Homo sapiens, SU-DHL-4, 72 h, SU-DHL-4 (lymphoma), 3 DAY, read-out: TC50 (the source's name)): 1.5 nM
- CC50 ([1]; Homo sapiens, SU-DHL-4, 72 h, SU-DHL-4 cells (lymphoma), 3 day, read-out: Cmpd A 3 day TC50): 0.84 nM
- CC50 ([1]; Homo sapiens, SU-DHL-5, 72 h, SU-DHL-5 (lymphoma), 3 DAY, read-out: TC50 (the source's name)): 0.9 nM
- CC50 ([1]; Homo sapiens, SU-DHL-5, 72 h, SU-DHL-5 cells (lymphoma), 3 day, read-out: Cmpd A 3 day TC50): 0.57 nM
- CC50 ([1]; Homo sapiens, SU-DHL-8, 72 h, SU-DHL-8 cells (lymphoma), 3 day, read-out: Cmpd A 3 day TC50): 0.59 nM
- CC50 ([1]; Homo sapiens, SU.86.86, 72 h, SU.86.86 cells (pancreas), 3 day, read-out: Cmpd A 3 day TC50): 4.3 nM
- CC50 ([1]; Homo sapiens, SW48, 72 h, SW-48 cells (colon), 3 day, read-out: Cmpd A 3 day TC50): 2.3 nM
- CC50 ([1]; Homo sapiens, SW480, 72 h, SW 480 cells (colon), 3 day, read-out: Cmpd A 3 day TC50): 4 nM
- CC50 ([1]; Homo sapiens, T47D, 72 h, T47D cells (breast), 3 day, read-out: Cmpd A 3 day TC50): 0.8 nM
- CC50 ([1]; Homo sapiens, T-24, 72 h, T24 cells (bladder), 3 day, read-out: Cmpd A 3 day TC50): 1 nM
- CC50 ([1]; Homo sapiens, THP-1, 72 h, THP-1 cells (lymphocytic leukemia), 3 day, read-out: Cmpd A 3 day TC50): < 0.8 nM
- CC50 ([1]; Homo sapiens, U2OS, 72 h, U-2 OS cells (osteosarcoma), 3 day, read-out: Cmpd A 3 day TC50): 2.2 nM
- CC50 ([1]; Homo sapiens, U-87 MG, 72 h, U-87MG (glioma), 3 DAY, read-out: TC50 (the source's name)): 23 nM
- CC50 ([1]; Homo sapiens, U-87 MG, 72 h, U-87 MG cells (brain; glioblastoma/astrocytoma), 3 day, read-out: Cmpd A 3 day TC50): 15 nM
- CC50 ([1]; Homo sapiens, U-266, 72 h, U266 cells (myeloma), 3 day, read-out: Cmpd A 3 day TC50): 18 nM
- CC50 ([1]; Homo sapiens, U-266, 168 h, U266 cells (myeloma), 7 day, read-out: Cmpd A 7 day TC50): 1.5 nM
- CC50 ([1]; Homo sapiens, U-937, 72 h, U-937 cells (lymphoma), 3 day, read-out: Cmpd A 3 day TC50): 1 nM
- CC50 ([1]; Homo sapiens, UACC-257, 72 h, UACC-257 cells (melanoma), 3 day, read-out: Cmpd A 3 day TC50): 27 nM
- CC50 ([1]; Homo sapiens, VCaP, 72 h, VCaP cells (prostate), 3 day, n = 2, read-out: Cmpd A 3 day TC50): > 10000 nM
- CC50 ([1]; Homo sapiens, VCaP, 168 h, VCaP cells (prostate), 7 day, read-out: Cmpd A 7 day TC50): 14 nM
- CC50 ([1]; Hs766T, 72 h, Hs 766T cells (pancreas), 3 day, read-out: Cmpd A 3 day TC50): 4.7 nM
- CC50 ([1]; L-82, 72 h, L-82 cells (lymphoma), 3 day, read-out: Cmpd A 3 day TC50): 32 nM
- CC50 ([1]; MLE12, 72 h, MLE-12 cells (mouse; lung), 3 day, read-out: Cmpd A 3 day TC50): 4 nM
- CC50 ([1]; MM.1R, 72 h, MM.1R cells (myeloma), 3 day, read-out: Cmpd A 3 day TC50): 1.5 nM
- CC50 ([1]; Mus musculus, B16-F10, 72 h, B16-F10 cells (mouse; melanoma), 3 day, read-out: Cmpd A 3 day TC50): 80 nM
- CC50 ([1]; Mus musculus, Hepa1-6, 72 h, Hepa1-6 cells (mouse; hepatoma), 3 day, read-out: Cmpd A 3 day TC50): 2.5 nM
- CC50 ([1]; Mus musculus, RAW264.7, 72 h, RAW264.7 cells (mouse; leukemia), 3 day, read-out: Cmpd A 3 day TC50): 14 nM
- CC50 ([1]; OVCAR-3 cells (ovary), 3 day, read-out: Cmpd A 3 day TC50): < 0.8 nM
- CC50 ([1]; OVCAR-8 cells (ovary), 3 day, read-out: Cmpd A 3 day TC50): < 0.8 nM
- CC50 ([1]; SR-786, 72 h, SR-786 cells (lymphoma), 3 day, read-out: Cmpd A 3 day TC50): 1.1 nM
- CC50 ([1]; SU-DHL-10 cells (lymphoma), 3 day, read-out: Cmpd A 3 day TC50): 0.83 nM
- CC50 ([1]; SUP-M2, 72 h, SUP-M2 cells (lymphoma), 3 day, read-out: Cmpd A 3 day TC50): 2.2 nM
- CC50 ([1]; T47D cells (breast), 3 day, read-out: Cmpd A 3 day TC50): < 1.5 nM
- CC50 ([1]; U266 cells (myeloma), 3 day, read-out: Cmpd A 3 day TC50): 10.3 nM
- CC50 ([1]; U-937 cells (lymphoma), 3 day, read-out: Cmpd A 3 day TC50): 0.89 nM
- CC50 ([1]; UWB1289, 72 h, UWB1.289 cells (ovary), 3 day, read-out: Cmpd A 3 day TC50): 2.4 nM
- CC50 at 3 day ([2]; SAEC (primary lung cells), SAEC (primary lung), value printed with (?)): 15000 nM
- CC50 at 3 day [2, 3]: > 5000 nM
- CC50 at 7 day [2, 3]: 0.9 nM
- CC50 at 3 day [2, 4]: > 25000 nM
- CC50 at 7 day [2, 4]: > 25000 nM
- CC50 at 3 day [2, 5]: 2.9 nM
- CC50 at 7 day [2, 5]: < 0.4 nM
- CC50 at 3 day ([2]; mouse, NIH-3T3 cells (fibroblast), NIH-3T3 cells (mouse; fibroblast)): 0.45 nM
